# Source: US9599627B2, “NMR methods for monitoring blood clot formation” (T2 Biosystems, Inc., priority 2011, dated 2017)
# Legend:
# [1] = system: P2Y12 pathway in platelets; test: T2MR platelet inhibition, ADP activation formulation in citrated whole blood; format: cell-based, human; conditions: ex vivo spiked MeSAMP, healthy donors
# Excerpt: We have developed a standard formulation for ADP activation of platelets in citrated whole blood which uses the addition of heparin to control thrombin activation, thereby minimizing variability in platelet activation via thrombin. Clotting in such a system is initiated with a combination of calcium (to overcome citrate), and reptilase/factor XIIIa (to replace thrombin). The complete one-pot activation mixture which activates platelets via ADP, and is therefore useful in probing the state of the P2Y12 ADP receptor, contains heparin, reptilase, factor XIIIa, calcium, and ADP.
# In this experiment inhibition of the P2Y12 pathway in platelets by using the ex vivo spiked MeSAMP (2-thiomethyl AMP, an irreversible ADP P2Y12 receptor inhibitor) as a mimic for Plavix inhibition of platelet activity was tested.
# A standard ADP activation formulation including heparin, reptilase, factor XIIIa, calcium, and ADP was used to activate platelet in citrated whole blood obtained from healthy donors. Samples were tested in the presence and absence of the platelet activation inhibitor MeSAMP. Again we observed that the clot signature was dependent on platelet activity.
# anti-Xa = test: PT clotting time of spiked samples (T2MR and Stago); format: cell-based, human; conditions: spiked at 10 ng/mL-1000 ng/mL
# Method: Clotting times were measured by […] by first establishing a time zero T2 value (i.e., by taking the first point or some sort of average or linear fit to the first 5-10 data points) of the T2 time curve, and second identifying the time point (i.e., the clotting time or PT time) in the T2 time curve when the T2 value had changed by a predetermined amount (e.g. 5% or 10%) indicative of clotting in the sample. From the observed PT clotting time the INR was calculated using the methods described in Jan et al., Clin. Chem. 35:840 (1989). […] 18 normal samples and 24 abnormal samples were tested against a reference range established by 20 normal samples. Abnormal samples with prolonged PT times were obtained by spiking increasing levels of the anti-Xa inhibitor Rivaroxiban (10 ng/mL-1000 ng/mL). Correlation with TEG clotting time was obtained across >40 normal patient samples with non-optimized R2 correlation of >0.8. (see FIG. 14B). PT time correlations with Stago for plasma (see FIG. 14D) and with Hemochron for whole blood (see FIG. 14C) were also found.
# platelet activity = test: T2MR platelet inhibition, heparin blood activated by AA+RF; format: cell-based; conditions: 600 μM aspirin ex vivo, AA+RF activation
# Method: In this experiment platelet inhibition was monitored by the addition of 600 μM aspirin ex vivo to heparin blood prior to activation by AA+RF (samples were tested with and without aspirin). […] These studies confirmed that the clot signature was dependent on platelet activity.
compound,measurement,setting,value
"CSc1nc(N)c2ncn([C@@H]3O[C@H](COP(=O)(O)O)[C@@H](O)[C@H]3O)c2n1 [MeSAMP, 2-thiomethyl AMP]",clot-associated T2 signal,[1],dramatically diminished or absent
O=C(NC[C@H]1CN(c2ccc(N3CCOCC3=O)cc2)C(=O)O1)c1ccc(Cl)s1 [Rivaroxiban],PT times,anti-Xa,prolonged
CC(=O)Oc1ccccc1C(=O)O [aspirin],clot-associated T2 signal,platelet activity,dramatically diminished or absent
